# Experimental data from patent US20080280906A1, “Imidazolyl-Pyrimidine Compounds for Use in the Treatment of Proliferative Disorders” (priority 2005, published 2008).
# Target: T1, CDK2/Cyclin E (Homo sapiens, UniProt P24941)
# T1 construct: The open reading frames of CDK2 and Cyclin E were isolated by reverse transcriptase-PCR; made in house; host or cells: SF21 (Spodoptera frugiperda) insect cells, baculovirus co-infection
# Experiment: in vitro kinase assay, Scintillation Proximity Assay (SPA), [γ-33-P]-ATP incorporation into GST-Rb
# Type: biochemical
# Conditions: GST-Rb substrate, 0.2 μM ATP, 60 minutes room temperature, read-out: CDK2 inhibitory activity IC50
# Description: The compounds were tested in an in vitro kinase assay in 96 well format using Scintillation Proximity Assay (SPA—obtained from Amersham) for measuring incorporation of [γ-33-P]-Adenosine Triphosphate into a test substrate (GST-Retinoblastoma protein; GST-Rb). In each well was placed the compound to be tested (diluted in DMSO and water to correct concentrations) and in control wells either roscovitine as an inhibitor control or DMSO as a positive control. […]
# The plates were sealed with Topseal-S plate sealers, left for two hours then spun at 2500 rpm, 1124×g., for 5 minutes. The plates were read on a Topcount for 30 seconds per well. […]
# E. coli paste was resuspended in 10 ml/g of NETN buffer (50 mM Tris pH 7.5, 120 mM NaCl, 1 mM EDTA, 0.5% v/v NP-40, 1 mM PMSF, 1 ug/ml leupeptin, 1 ug/ml aprotinin and 1 ug/ml pepstatin) and sonicated for 2×45 seconds per 100 ml homogenate. […] The final product was analysed by Sodium Dodeca Sulfate (SDS) PAGE (Polyacrylamide gel) using 8-16% Tris-Glycine gels (Novex, San Diego, USA).
# The open reading frames of CDK2 and Cyclin E were isolated by reverse transcriptase-PCR using HeLa cell and activated T cell mRNA as a template and cloned into the insect expression vector pVL1393 (obtained from Invitrogen 1995 catalogue number: V1392-20). […]
compound,measurement,value
Cc1ncc(-c2ccnc(Nc3ccc(C(=O)N4CCOCC4)cc3)n2)n1C(C)C [Example 14],IC50,3 nM
